These results are taken from US20240423915A1, “LIPIDS FOR USE IN LIPID NANOPARTICLES” (Acuitas Therapeutics, Inc., priority 2023, published 2024).

This assay concerns human IgG in mouse serum. In words: Immunoglobulin G (IgG) mRNA in vivo evaluation using lipid nanoparticle compositions (human IgG ELISA of mouse serum). The following applies: LNP with cationic lipid/DSPC/cholesterol/PEG lipid, tail vein injection, mouse serum 24 hours after administration; for Serum IgG (μg/mL) @ 0.3 mg/kg: IgG mRNA 0.3 mg mRNA/kg; for Serum IgG (μg/mL) @ 1.0 mg/kg: IgG mRNA 1.0 mg mRNA/kg. More on the design: species or system CD-1/ICR mice. The protocol: A lipid of Formula (I), DSPC, cholesterol and PEG-lipid of Formula (II) are solubilized in ethanol at a molar ratio of 50:10:38.5:1.5 or 47.5:10:40.7:1.8. Lipid nanoparticles (LNP) are prepared at a total lipid to mRNA weight ratio of approximately 10:1 to 40:1. Briefly, the mRNA is diluted to 0.2 mg/mL in 10 to 50 mM citrate buffer, pH 4 to 6 or 10 to 25 mM acetate buffer, pH 4 to 6. Syringe pumps are used to mix the ethanolic lipid solution with the mRNA aqueous solution at a ratio of about 1:5 to 1:3 (vol/vol) with total flow rates above 15 mL/min. The ethanol is then removed, and the external buffer replaced with PBS by dialysis. Finally, the lipid nanoparticles are filtered through a 0.2 μm pore sterile filter.
Studies are performed in 6-8-week-old CD-1/ICR mice (Charles River or Inotiv) according to guidelines established by an institutional animal care committee (ACC) and the Canadian Council on Animal Care (CCAC). Varying doses of mRNA-lipid nanoparticle are systemically administered by tail vein injection and animals euthanized at a specific time point (e.g., 24 hours) post-administration. The whole blood is collected, and the serum subsequentially separated by centrifuging the tubes of the whole blood at 2000×g for 10 minutes at 4° C. and stored at −80° C. until use for analysis.
For immunoglobulin G (IgG) ELISA (Life Diagnostics Human IgG ELISA kit), the serum samples are diluted at 100 to 20,000 folds with 1× diluent solution. 100 μL of diluted serum is dispensed into anti-human IgG coated 96-well plate in duplicate alongside human IgG standards and incubated in a plate shaker at 150 rpm at 25° C. for 45 minutes. The wells are washed 5 times with 1× wash solution using a plate washer (400 μL/well). 100 μL of HRP conjugate is added into each well and incubated in a plate shaker at the same condition above. The wells are washed 5 times again with 1× wash solution using a plate washer (400 μL/well). 100 μL of TMB reagent is added into each well and incubated in a plate shaker at the same condition above. The reaction is stopped by adding 100 μL of Stop solution to each well. The absorbance is read at 450 nm (A450) with a microplate reader. The amount of human IgG in mouse serum is determined by plotting A450 values for the assay standard against human IgG concentration.
Representative compounds of the disclosure shown in Table 2 were formulated using the following molar ratio: 50% cationic lipid/10% distearoylphosphatidylcholine (DSPC)/38.5% Cholesterol/1.5% PEG lipid 2-[2-(ω-methoxy(polyethyleneglycol2000)ethoxy]-N,N-ditetradecylacetamide) or 47.5% cationic lipid/10% DSPC/40.7% Cholesterol/1.8% PEG lipid. Relative activity was determined by measuring the amount of human IgG in mouse serum as described in Example 1. The activity was compared at a dose of 1.0 or 0.3 mg mRNA/kg and expressed as ng luciferase/g liver measured 4 hours after administration, as described in Example 1 or as μg IgG/mL serum measured 24 hours after administration, as described in Example 2. Compound numbers in Table 2 refer to the compound numbers of Table 1.

Take `CCCCCCCCCCOC(=O)OCCCCCCCCN(CCCCCO)CCCCCCCC(=O)N(CCCCCCCCCC)CCCCCCCCCC` [Compound I-1, decyl (8-((8-(didecylamino)-8-oxooctyl)(5-hydroxypentyl)amino)octyl) carbonate]: the “Serum IgG (μg/mL) @ 0.3 mg/kg” value was found to be 15.6 ± 5.1 µg/mL and the “Serum IgG (μg/mL) @ 1.0 mg/kg” value stood at 121.5 ± 33.1 µg/mL.
As for `CCCCCCCCCCOC(=O)OCCCCCCCCN(C)CCCCCCCC(=O)N(CCCCCCCCCC)CCCCCCCCCC` [Compound I-2, decyl (8-((8-(didecylamino)-8-oxooctyl)(methyl)amino)octyl) carbonate], the “Serum IgG (μg/mL) @ 0.3 mg/kg” value is 22.3 ± 7.8 µg/mL and the “Serum IgG (μg/mL) @ 1.0 mg/kg” value came out at 134.9 ± 26.6 µg/mL.
Taken in the same sequence, the figures for `CCCCCCCCCCN(CCCCCCCCCC)C(=O)CCCCCCCN(CCCCCO)CCCCCCCCOC(=O)OC(CCCCCCC)CCCCCCC` [Compound I-3, 8-((8-(didecylamino)-8-oxooctyl)(5-hydroxypentyl)amino)octylpentadecan-8-yl carbonate] were 30.1 ± 2.1 µg/mL and 173.3 ± 9.3 µg/mL.
Take `CCCCCCCCCCN(CCCCCCCCCC)C(=O)CCCCCCCN(C)CCCCCCCCOC(=O)OC(CCCCCCC)CCCCCCC` [Compound I-4, 8-((8-(didecylamino)-8-oxooctyl)(methyl)amino)octylpentadecan-8-yl carbonate]: the “Serum IgG (μg/mL) @ 0.3 mg/kg” value was 8.5 ± 2.0 µg/mL and the “Serum IgG (μg/mL) @ 1.0 mg/kg” value was 73.6 ± 15.6 µg/mL.
For `CCCCCCCCCCN(CCCCCCCCCC)C(=O)CCCCCCCCC(CCCCCCCCC(=O)OCC(CCCC)CCCCCC)N(CCCCCCCCCC)C(=O)CCN(C)C` (stereo not shown) [Compound I-8, 2-butyloctyl 10-(N-decyl-3-(dimethylamino)propanamido)-19-(didecylamino)-19-oxononadecanoate], in that order: 21.7 ± 4.3 µg/mL and 232.4 ± 42.5 µg/mL.
For `CCCCCCCCCCN(CCCCCCCCCC)C(=O)CCCCCCCN(CCCCCO)CCCCCCCCOC(=O)OCC(CC)CCCC` (stereo not shown) [Compound I-11, 8-((8-(didecylamino)-8-oxooctyl)(5-hydroxypentyl)amino)octyl (2-ethylhexyl) carbonate], the “Serum IgG (μg/mL) @ 0.3 mg/kg” value came out at 39.6 ± 6.3 µg/mL.
On the same count and under the same terms, the result for `CCCCCCCCCCN(CCCCCCCCCC)C(=O)CCCCCCCN(CCCCCO)CCCCCCCCOC(=O)OCC(CCCC)CCCCCC` (stereo not shown) [Compound I-12, 2-butyloctyl (8-((8-(didecylamino)-8-oxooctyl)(5-hydroxypentyl)amino)octyl) carbonate] reads 19.7 ± 6.8 µg/mL.
With `CCCCCCCCCCC(CCCCCCCCCC)OC(=O)OCCCCCCCCCN(CCCCCO)CCCCCCCC(=O)N(CCCCCCCCCC)CCCCCCCCCC` [Compound I-13, 9-((8-(didecylamino)-8-oxooctyl)(5-hydroxypentyl)amino)nonyl henicosan-11-yl carbonate], the “Serum IgG (μg/mL) @ 0.3 mg/kg” value was 18.2 ± 3.3 µg/mL and the “Serum IgG (μg/mL) @ 1.0 mg/kg” value was 143.2 ± 23.9 µg/mL.
Taken in the same sequence, the figures for `CCCCCCCCCCN(CCCCCCCCCC)C(=O)CCCCCCCN(CCCCCO)CCCCCCCCCOC(=O)OC(CCCC)CCCC` [Compound I-14, 9-((8-(didecylamino)-8-oxooctyl)(5-hydroxypentyl)amino)nonyl nonan-5-yl carbonate] were 37.0 ± 18.5 µg/mL and 280.8 ± 86.6 µg/mL.
Consider `CCCCCCCCCCC(CCCCCCCCCC)OC(=O)OCCCCCN(CCCCCO)CCCCCCCC(=O)N(CCCCCCCCCC)CCCCCCCCCC` [Compound I-15, 5-((8-(didecylamino)-8-oxooctyl)(5-hydroxypentyl)amino)pentyl henicosan-11-yl carbonate], for which the “Serum IgG (μg/mL) @ 0.3 mg/kg” value was 7.8 ± 4.0 µg/mL.
With `CCCCCCCCCCN(CCCCCCCCCC)C(=O)CCCCCCCN(CCCCCO)CCCCCOC(=O)OC(CCCC)CCCC` [Compound I-16, 5-((8-(didecylamino)-8-oxooctyl)(5-hydroxypentyl)amino)pentyl nonan-5-yl carbonate], the “Serum IgG (μg/mL) @ 0.3 mg/kg” value is 18.5 ± 2.7 µg/mL and the “Serum IgG (μg/mL) @ 1.0 mg/kg” value was found to be 75.4 ± 53.7 µg/mL.
Take `CCCCCCCCCCN(CCCCCCCCCC)C(=O)CCCCCCCN(CCCCCO)CCCCCCCCCOC(=O)OC(CCCCCC)CCCCCC` [Compound I-17, 9-((8-(didecylamino)-8-oxooctyl)(5-hydroxypentyl)amino)nonyl tridecan-7-yl carbonate]: the “Serum IgG (μg/mL) @ 0.3 mg/kg” value was 20.1 ± 6.7 µg/mL.
On to `CCCCCCCCCCN(CCCCCCCCCC)C(=O)CCCCCCCN(CCCCCO)CCCCCCCOC(=O)OC(CCCCCCCC)CCCCCCCC` [Compound I-18, 7-((8-(didecylamino)-8-oxooctyl)(5-hydroxypentyl)amino)heptyl heptadecan-9-yl carbonate], for which the “Serum IgG (μg/mL) @ 0.3 mg/kg” value stood at 51.5 ± 9.5 µg/mL and the “Serum IgG (μg/mL) @ 1.0 mg/kg” value was 290.2 ± 50.5 µg/mL.
In the case of `CCCCCCCCCCN(CCCCCCCCCC)C(=O)CCCCCCCN(CCCCCO)CCCCCCCCOC(=O)OCC(CCCCCC)CCCCCCCC` (stereo not shown) [Compound I-19, 8-((8-(didecylamino)-8-oxooctyl)(5-hydroxypentyl)amino)octyl (2-hexyldecyl) carbonate], the “Serum IgG (μg/mL) @ 0.3 mg/kg” value came to 25.1 ± 4.2 µg/mL and the “Serum IgG (μg/mL) @ 1.0 mg/kg” value is 184.5 ± 40.2 µg/mL.
In the case of `CCCCCCCCC(CCCCCCCC)OC(=O)OCCCCCCCN(CCCCCO)CCCCCCCCCC(=O)N(CCCCCCCC)CCCCCCCC` [Compound I-20, 7-((10-(dioctylamino)-10-oxodecyl)(5-hydroxypentyl)amino)heptyl heptadecan-9-yl carbonate], the “Serum IgG (μg/mL) @ 0.3 mg/kg” value came out at 51.4 ± 12.8 µg/mL.
The same measure, in the same setting: the result for `CCCCCCCCCCCCN(CCCCCCCCCCCC)C(=O)CCCCCN(CCCCCO)CCCCCCCOC(=O)OC(CCCCCCCC)CCCCCCCC` [Compound I-21, 7-((6-(didodecylamino)-6-oxohexyl)(5-hydroxypentyl)amino)heptyl heptadecan-9-yl carbonate] reads 9.7 ± 3.3 µg/mL; that for `CCCCCCCCCCCCN(CCCCCCCCCCCC)C(=O)CCCCCCCN(CCCCCO)CCCCCCCOC(=O)OC(CCCCCCCC)CCCCCCCC` [Compound I-22, 7-((8-(didodecylamino)-8-oxooctyl)(5-hydroxypentyl)amino)heptyl heptadecan-9-yl carbonate], 22.8 ± 11.0 µg/mL.
Still for that read-out and setting: the result for `CCCCCCCCC(CCCCCCCC)OC(=O)OCCCCCCCN(CCCCCO)CCCCCCCC(=O)N(CCCCCCCC)CCCCCCCC` [Compound I-23, 7-((8-(dioctylamino)-8-oxooctyl)(5-hydroxypentyl)amino)heptyl heptadecan-9-yl carbonate] reads 34.8 ± 12.3 µg/mL; that for `CCCCCCCCCCN(CCCCCCCCCC)C(=O)CCCCCCCCC(CCCCCCCCC(=O)OCC(CCCC)CCCCCC)N(CCCCCCCC)C(=O)CCCN1CCCC1` (stereo not shown) [Compound I-24, 2-butyloctyl 19-(didecylamino)-10-(n-octyl-4-(pyrrolidin-1-yl)butanamido)-19-oxononadecanoate], 25.1 ± 7.7 µg/mL.
Take `CCCCCCCCCCN(CCCCCCCCCC)C(=O)CCCCCCCCC(CCCCCCCCC(=O)OCC(CCCC)CCCCCC)N(CCCCCCCCCC)C(=O)CCCN(C)C` (stereo not shown) [Compound I-25, 2-butyloctyl 10-(n-decyl-4-(dimethylamino)butanamido)-19-(didecylamino)-19-oxononadecanoate]: the “Serum IgG (μg/mL) @ 0.3 mg/kg” value was found to be 9.3 ± 1.7 µg/mL and the “Serum IgG (μg/mL) @ 1.0 mg/kg” value is 68.3 ± 13.4 µg/mL.
